The assay addresses T1, Recombinant human LTC4 synthase (Homo sapiens, UniProt Q16873).
T1 construct: made in house; host or cells: Pichia pastoris ('Piccia pastoralis' [sic])
T1 sequence (Q16873 1-150): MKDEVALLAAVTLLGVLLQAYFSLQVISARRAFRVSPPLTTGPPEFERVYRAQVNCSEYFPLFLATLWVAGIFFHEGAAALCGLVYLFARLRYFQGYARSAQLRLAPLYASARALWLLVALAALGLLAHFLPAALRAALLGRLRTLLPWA
Nature of the assay: LTC4 synthase in vitro assay (LTA4 to LTC4, HTRF detection). The class given is biochemical. Particulars: for inhibition at 3 µM: compound concentration 3 μM; for inhibition at 10 µM: 5 min, total concentration of title compound in the assay 10 μM. The gist of the method:
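Purified recombinant human LTC4 synthase expressed in Pichia (0.5 μg/mL total protein) was preincubated with inhibitor at 10 μM final for 10 min at room temperature in PBS pH 7.4 with 5 mM GSH. LTA4 was then added at 2.5 μM final, and after 5 min at room temperature LTC4 was detected by HTRF.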
For orientation: Time-resolved FRET reads energy transfer from a long-lived donor to a nearby acceptor.

As usually defined, the IC50 is the concentration at which inhibition is half-maximal. In the case of `COc1ccc(OC)c(C(=O)Nc2ccc(C(=O)c3ccc(N(C)c4ccc(Cl)cc4)cn3)cc2C(=O)O)c1` [3:21, 5-{5-[(4-Chlorophenyl)(methyl)amino]picolinoyl}-2-(2,5-dimethoxybenzamido)-benzoic acid], the half-inhibitory concentration (IC50) came to 25 nM.

`COc1ccc(C(=O)Nc2ccc(C(=O)c3ccc(N(CC4CC4)c4ccc(Cl)cc4)cn3)cc2C(=O)O)c(OC)c1` [3:22, 5-{5-[(4-Chlorophenyl)(cyclopropylmethyl)amino]picolinoyl}-2-(2,4-dimethoxy-benzamido)benzoic acid]: the half-inhibitory concentration (IC50) stood at 16 nM.

For the compound `COc1cccc(C(=O)Nc2ccc(C(=O)c3ccc(N(CC4CC4)c4ccc(Cl)cc4)cn3)cc2C(=O)O)c1` [3:23, 5-{5-[(4-Chlorophenyl)(cyclopropylmethyl)amino]picolinoyl}-2-(3-methoxy-benzamido)benzoic acid], the IC50 was found to be 33 nM.

Turning to `O=C(Nc1ccc(C(=O)c2ccc(N(CC3CC3)c3ccc(Cl)cc3)cn2)cc1C(=O)O)c1ccc2c(c1)OC(F)(F)O2` [3:24, 5-{5-[(4-Chlorophenyl)(cyclopropylmethyl)amino]picolinoyl}-2-[3,4-(difluoromethylenedioxy)benzamido]benzoic acid], the IC50 is 16 nM.

As to `O=C(Nc1ccc(C(=O)c2ccc(N(CC3CC3)c3ccc(Cl)cc3)cn2)cc1C(=O)O)c1ccc2c(c1)OCCO2` [3:25, 5-{5-[(4-Chlorophenyl)(cyclopropylmethyl)amino]picolinoyl}-2-(3,4-ethylene-dioxybenzamido)benzoic acid], the IC50 turned out to be 11 nM.

As to `COc1ccc(C(=O)Nc2ccc(C(=O)c3ccc(N(C)c4ccc(Cl)cc4)cn3)cc2C(=O)O)cc1OC` [3:26, 5-{5-[(4-Chlorophenyl)(methyl)amino]picolinoyl}-2-(3,4-dimethoxybenzamido)-benzoic acid], the IC50 amounted to 37 nM.

Turning to `COc1cccc(C(=O)Nc2ccc(C(=O)c3ccc(N(C)c4ccc(Cl)cc4)cn3)cc2C(=O)O)c1OC` [3:27, 5-{5-[(4-Chlorophenyl)(methyl)amino]picolinoyl}-2-(2,3-dimethoxybenzamido)-benzoic acid], the IC50 came to 40 nM.

In the case of `CN(c1ccc(Cl)cc1)c1ccc(C(=O)c2ccc(NC(=O)c3cccc4c3OCO4)c(C(=O)O)c2)nc1` [3:28, 5-{5-[(4-Chlorophenyl)(methyl)amino]picolinoyl}-2-(2,3-methylenedioxy-benzamido)benzoic acid], the IC50 was determined as 50 nM.

On to `COc1cc(OC)cc(C(=O)Nc2ccc(C(=O)c3ccc(N(C)c4ccc(Cl)cc4)cn3)cc2C(=O)O)c1` [3:29, 5-{5-[(4-Chlorophenyl)(methyl)amino]picolinoyl}-2-(3,5-dimethoxybenzamido)-benzoic acid], for which the IC50 was determined as 12 nM.

On to `COc1cccc(F)c1C(=O)Nc1ccc(C(=O)c2ccc(N(C)c3ccc(Cl)cc3)cn2)cc1C(=O)O` [3:30, 5-{5-[(4-Chlorophenyl)(methyl)amino]picolinoyl}-2-(2-fluoro-6-methoxybenz-amido)benzoic acid], for which the 50% inhibitory concentration (IC50) is 26 nM.

Turning to `COc1c(F)c(F)cc(C(=O)Nc2ccc(C(=O)c3ccc(N(C)c4ccc(Cl)cc4)cn3)cc2C(=O)O)c1F` [3:31, 5-{5-[(4-Chlorophenyl)(methyl)amino]picolinoyl}-2-(2,4,5-trifluoro-3-methoxy-benzamido)benzoic acid], the IC50 came out at 61 nM.

Turning to `COc1ccc(C(=O)Nc2ccc(C(=O)c3ccc(N(C)c4ccc(Cl)cc4)cn3)cc2C(=O)O)c(C)c1` [3:32, 5-{5-[(4-Chlorophenyl)(methyl)amino]picolinoyl}-2-(4-methoxy-2-methylbenz-amido)benzoic acid], the IC50 came to 42 nM.

Consider `COc1cccc(C(=O)Nc2ccc(C(=O)c3ccc(N(C)c4ccccc4)cn3)cc2C(=O)O)c1` [3:33, 2-(3-Methoxybenzamido)-5-{5-[(methyl)(phenyl)amino]picolinoyl}benzoic acid], for which the 50% inhibitory concentration (IC50) turned out to be 226 nM.

For `COc1ccc(C(=O)Nc2ccc(C(=O)c3ccc(N(C)c4ccccc4)cn3)cc2C(=O)O)c(OC)c1` [3:34, 2-(2,4-Dimethoxybenzamido)-5-{5-[(methyl)(phenyl)amino]picolinoyl}benzoic acid], the concentration for half-maximal inhibition (IC50) came to 163 nM.

Take `COc1cc(F)c(C(=O)Nc2ccc(C(=O)c3ccc(N(C)c4ccc(Cl)cc4)cn3)cc2C(=O)O)c(F)c1` [3:35, 5-{5-[(4-Chlorophenyl)(methyl)amino]picolinoyl}-2-(2,6-difluoro-4-methoxy-benzamido)benzoic acid]: the 50% inhibitory concentration (IC50) was 73 nM.

Regarding `COc1ccc(C(=O)Nc2ccc(C(=O)c3ccc(N(C)c4ccc(Cl)cc4)cn3)cc2C(=O)O)c(Cl)c1OC` [3:36, 2-(2-Chloro-3,4-dimethoxybenzamido)-5-{5-[(4-chlorophenyl)(methyl)amino]-picolinoyl}benzoic acid], the IC50 worked out at 39 nM.

As to `COc1cccc(C(=O)Nc2ccc(C(=O)c3ccc(N(C)Cc4ccc(Cl)cc4)cn3)cc2C(=O)O)c1` [3:37, 5-{5-[(4-Chlorobenzyl)(methyl)amino]picolinoyl}-2-(3-methoxybenzamido)-benzoic acid], the IC50 is 21 nM.

For the compound `CN(c1ccc(Cl)cc1)c1ccc(C(=O)c2ccc(NC(=O)c3cccc(Br)c3)c(C(=O)O)c2)nc1` [3:38, 2-(3-Bromobenzamido)-5-{5-[(4-chlorophenyl)(methyl)amino]picolinoyl}benzoic acid], the IC50 was determined as 68 nM.

In the case of `CN(c1ccc(Cl)cc1)c1ccc(C(=O)c2ccc(NC(=O)c3cccc(C(F)(F)F)c3)c(C(=O)O)c2)nc1` [3:39, 5-{5-[(4-chlorophenyl)(methyl)amino]picolinoyl}-2-(3-trifluoromethylbenzamido)-benzoic acid], the IC50 came to 91 nM.

As usually defined, the inhibition is the share of the control response that was lost under treatment. For `CN(c1ccc(Cl)cc1)c1ccc(C(=O)c2ccc(NS(=O)(=O)c3ccccc3)c(C(=O)O)c2)nc1` [4:1, 5-{5-[(4-Chlorophenyl)(methyl)amino]picolinoyl}-2-(phenylsulfonamido)benzoic acid], the IC50 stood at 39 nM and the inhibition at 3 µM came out at 100%.

`CCCCOc1ccc(S(=O)(=O)Nc2ccc(C(=O)c3ccc(N(C)c4ccc(Cl)cc4)cn3)cc2C(=O)O)cc1` [4:2, 2-(4-Butoxyphenylsulfonamido)-5-{5-[(4-chlorophenyl)(methyl)amino]picolinoyl}-benzoic acid]: the half-maximal inhibitory concentration (IC50) came to 23 nM and the inhibition at 3 µM turned out to be 100%.

As for `CN(c1ccc(Cl)cc1)c1ccc(C(=O)c2ccc(NS(=O)(=O)c3cccs3)c(C(=O)O)c2)nc1` [4:3, 5-{5-[(4-Chlorophenyl)(methyl)amino]picolinoyl}-2-(2-thienylsulfonamido)benzoic acid], the IC50 was 40 nM and the inhibition at 10 µM stood at 99%.

As for `CN(c1ccc(Cl)cc1)c1ccc(C(=O)c2ccc(NS(=O)(=O)c3ccc(C(F)(F)F)cc3)c(C(=O)O)c2)nc1` [4:4, 5-{5-[(4-Chlorophenyl)(methyl)amino]picolinoyl}-2-(4-trifluoromethylphenylsulfon-amido)benzoic acid], the IC50 is 43 nM and the inhibition at 10 µM was 100%.

With `CN(c1ccc(Cl)cc1)c1ccc(C(=O)c2ccc(NS(=O)(=O)c3ccc(Cl)cc3)c(C(=O)O)c2)nc1` [4:5, 5-{5-[(4-Chlorophenyl)(methyl)amino]picolinoyl}-2-(4-chlorophenylsulfonamido)-benzoic acid], the IC50 was 33 nM and the inhibition at 10 µM is 100%.

On to `O=C(c1ccc(NS(=O)(=O)c2ccc(Cl)cc2)c(C(=O)O)c1)c1ccc(N(CC2CC2)c2ccc(Cl)cc2)cn1` [4:6, 2-(4-Chlorophenylsulfonamido)-5-{5-[(4-chlorophenyl)(cyclopropylmethyl)-amino]picolinoyl}benzoic acid], for which the half-maximal inhibitory concentration (IC50) was 17 nM.

Consider `CN(c1ccc(Cl)cc1)c1ccc(C(=O)c2ccc(C(=O)c3ccccc3)c(C(=O)O)c2)nc1` [5:1, 2-Benzoyl-5-{5-[(4-chlorophenyl)(methyl)amino]picolinoyl}benzoic acid], for which the IC50 came to 72 nM.

In the case of `CN(c1ccc(C(F)(F)F)cc1)c1ccc(C(=O)c2ccc(C(=O)c3ccccc3)c(C(=O)O)c2)nc1` [5:2, 2-Benzoyl-5-{5-[(methyl)(4-trifluoromethylphenyl)amino]picolinoyl}benzoic acid], the IC50 was 78 nM.

Take `COc1ccc(C(=O)c2ccc(C(=O)c3ccc(N(C)c4ccc(Cl)cc4)cn3)cc2C(=O)O)cc1` [5:3, 5-{5-[(4-Chlorophenyl)(methyl)amino]picolinoyl}-2-(4-methoxybenzoyl)benzoic acid]: the IC50 was 50 nM.

For the compound `COc1ccc(C(=O)c2ccc(C(=O)c3ccc(N(CC4CC4)c4ccc(Cl)cc4)cn3)cc2C(=O)O)cc1` [5:4], the half-inhibitory concentration (IC50) came to 29 nM.

Consider `COc1ccc(C(=O)c2ccc(C(=O)c3ccc(N(CC4CC4)c4ccc(Cl)cc4F)cn3)cc2C(=O)O)cc1` [5:5], for which the IC50 came out at 46 nM.

On to `COc1ccc(C(=O)c2ccc(C(=O)c3ccc(N(CC(F)(F)F)c4ccc(Cl)cc4F)cn3)cc2C(=O)O)cc1` [5:6, 5-{5-[(4-Chloro-2-fluorophenyl)(2,2,2-trifluoroethyl)amino]picolinoyl}-2-(4-methoxybenzoyl)benzoic acid], for which the IC50 was 401 nM.

In the case of `COc1cccc(C(=O)c2ccc(C(=O)c3ccc(N(C)c4ccc(Cl)cc4)cn3)cc2C(=O)O)c1` [5:7, 5-{5-[(4-Chlorophenyl)(methyl)amino]picolinoyl}-2-(3-methoxybenzoyl)benzoic acid], the IC50 was determined as 36 nM.

Consider `COc1ccccc1C(=O)c1ccc(C(=O)c2ccc(N(C)c3ccc(Cl)cc3)cn2)cc1C(=O)O` [5:8, 5-{5-[(4-Chlorophenyl)(methyl)amino]picolinoyl}-2-(2-methoxybenzoyl)benzoic acid], for which the IC50 was determined as 154 nM.

Consider `CCOc1ccc(C(=O)c2ccc(C(=O)c3ccc(N(C)c4ccc(Cl)cc4)cn3)cc2C(=O)O)cc1` [5:9, 5-{5-[(4-Chlorophenyl)(methyl)amino]picolinoyl}-2-(4-ethoxybenzoyl)benzoic acid], for which the IC50 worked out at 101 nM.

The values are drawn from patent US20120004244A1, “Bis Aromatic Compounds for Use as LTC4 Synthase Inhibitors” (BIOLIPOX AB, priority 2009, published 2012).
